Reference: patent EP0762895B1, “SYNTHETIC VACCINE FOR PROTECTION AGAINST HUMAN IMMUNODEFICIENCY VIRUS INFECTION” (DUKE UNIVERSITY, priority 1994, dated 1995)
Read-outs that look alike come from different tables or passages of the source. Where no end group is shown, it is not given here.

Columns and labels:
[1] = tested on: Normal Human Peripheral Blood Lymphocytes
T cells = conditions: share of population studied, cited from earlier work
[2] = T helper epitopes of Clerici et al 1989
[3] = T helper epitopes of Schrier et al 1989

Substance	% Responding (T cells; [3]) [%]	further results
CTRPNNNTRKSIRIQRGPG [SP-10, CTRPNNNTRKSIRIQRGPG]		Inhibition of normal T cell response to tetanus toxoid [1]: no inhibition of normal T cell response to tetanus toxoid was observed
HEDIISLWNQSLK [T2]		% Responding (T cells; [2]): 54%
KQIINMWQEVGKAMYA [T1]		% Responding (T cells; [2]): 77%
TH4: T helper epitope, amino acids 834-848 of gp41 (QGACRAIRHIPRRIR; Transmembrane protein gp41; UniProt P04578 834-848, looked up, fragment)		% Responding (T cells; [2]): 75%
gp41-1: T helper epitope, amino acids 603-614 of gp41 (ICTTAVPWNASW; Transmembrane protein gp41; UniProt P04578 603-614, looked up, fragment)	41	
gp41-2: T helper epitope, amino acids 609-620 of gp41 (PWNASWSNKSLE; Transmembrane protein gp41; UniProt P04578 609-620, looked up, fragment)	42	
gp41-3: T helper epitope, amino acids 655-667 of gp41 (KNEQELLELDKWA; Transmembrane protein gp41; UniProt P04578 655-667, looked up, fragment)	38	
gp41-5: T helper epitope, amino acids 737-749 of gp41 (GGERDRDRSIRLV; Transmembrane protein gp41; UniProt P04578 737-749, looked up, fragment)	21	
gp41-7: T helper epitope, amino acids 584-609 of gp41 (ERYLKDQQLLGIWGCSGKLICTTAVP; Transmembrane protein gp41; UniProt P04578 584-609, looked up, fragment)	24	
gp120-2: T helper epitope, amino acids 115-126 of gp120 (SLKPCVKLTPLC; Envelope glycoprotein gp120; UniProt P04578 115-126, looked up, fragment)	38	
gp120-5: T helper epitope, amino acids 368-377 of gp120 (DPEIVTHSFN; Envelope glycoprotein gp120; UniProt P04578 368-377, looked up, fragment)	21	
pol-1: T helper epitope, amino acids 899-913 of pol	28	
pol-2: T helper epitope, amino acids 923-937 of pol	38	
pol-3: T helper epitope, amino acids 942-954 of pol	48	
pol-4: T helper epitope, amino acids 720-730 of pol (PSINNETPGIR; UniProt P04585 720-730, looked up, fragment)	35	
